Where a name gives a salt, the structure may show the parent alone.
Tests used:
drug-naive rats = assay: Locomotor activity in drug-naive rats (in vivo behaviour); set-up: species or system rat; settings: recorded for 60 minutes immediately after drug administration
Text: Photobeam sensors are spaced 2.5 cm apart.

[1] = system: DOPAC (3,4-dihydroxyphenylacetic acid) in the rat striatum; assay: Increase of DOPAC in the rat striatum after systemic administration (in vivo neurochemistry); settings: sc, systemic administration (s.c.), curve fitting, 95% range printed in the row below each value, read-out: ED50 DOPAC* (estimated ED50 on increase of DOPAC in the rat striatum)
Text: After the behavioural activity sessions, the rats are decapitated and their brains rapidly taken out and put on an ice-cold petri-dish. The limbic forebrain, the striatum, the frontal cortex and the remaining hemispheral parts of each rat are dissected and frozen. Each brain part is subsequently analyzed with respect to its content of monoamines and their metabolites.
The monoamine transmitter substances (NA (noradrenaline), DA (dopamine), 5-HT (serotonin)) as well as their amine (NM (normethanephrine), 3-MT (3-methoxytyramine)) and acid (DOPAC (3,4-dihydroxyphenylacetic acid), 5-HIAA (5-hydroxyindoleacetic acid), HVA (homovanillic acid)) metabolites are quantified in brain tissue homogenates by HPLC separations and electrochemical detection
The analytical method is based on two chromatographic separations dedicated for amines or acids. Two chromatographic systems share a common auto injector with a 10-port valve and two sample loops for simultaneous injection on the two systems. Both systems are equipped with a reverse phase column (Luna C18(2), dp 3 μm, 50*2 mm i.d., Phenomenex) and electrochemical detection is accomplished at two potentials on glassy carbon electrodes (MF-1000, Bioanalytical Systems, Inc.). The column effluent is passed via a T-connection to the detection cell or to a waste outlet. This is accomplished by two solenoid valves, which block either the waste or detector outlet. By preventing the chromatographic front from reaching the detector, better detection conditions are achieved. The aqueous mobile phase (0.4 ml/min) for the acid system contains citric acid 14 mM, sodium citrate 10 mM, MeOH 15% (v/v) and EDTA 0.1 mM. Detection potentials relative to Ag/AgCl reference are 0.45 and 0.60V. The aqueous ion pairing mobile phase (0.5 ml/min) for the amine system contains citric acid 5 mM, sodium citrate 10 mM, MeOH 9% (v/v), MeCN 10.5% v/v), decane sulfonic acid 0.45 mM, and EDTA 0.1 mM. Detection potentials relative to Ag/AgCl reference are 0.45 and 0.65V.
ED50 values for the increase of DOPAC in striatum are calculated by curve fitting.

melting point [°C]	SMILES	Locomotor activity (counts/60 min ± SEM) (drug-naive rats; 3.7 μmol/kg) [counts/60 min]	Locomotor activity (counts/60 min ± SEM) (drug-naive rats; 11 μmol/kg) [counts/60 min]	Locomotor activity (counts/60 min ± SEM) (drug-naive rats; 33 μmol/kg) [counts/60 min]	ED50 [1] [µmol/kg]
163	CCCNCC1COc2ccc(OS(=O)(=O)C(F)(F)F)cc2O1 (centres unmarked) (as salt: fumaric acid salt) [Example 6, 3-[(PROPYLAMINO)METHYL]-2,3-DIHYDRO-1,4-BENZODIOXIN-6-YL TRIFLUOROMETHANESULFONATE]				
187	CCCNCC1COc2ccc(F)cc2O1 (centres unmarked) (as salt: hydrochloric acid salt) [Example 3, N-[(7-FLUORO-2,3-DIHYDRO-1,4-BENZODIOXIN-2-YL)METHYL]PROPAN-1-AMINE]				
184	CCCNCC1COc2ccc(F)c(F)c2O1 (centres unmarked) (as salt: hydrochloric acid salt) [Example 7, N-[(7,8-DIFLUORO-2,3-DIHYDRO-1,4-BENZODIOXIN-2-YL)METHYL]PROPAN-1-AMINE]				
262	CCCNCC1COc2cc(F)c(F)cc2O1 (centres unmarked) (as salt: hydrobromic acid salt) [Example 2, N-[(6,7-DIFLUORO-2,3-DIHYDRO-1,4-BENZODIOXIN-2-YL)METHYL]PROPAN-1-AMINE]				
157	CCCNCC1COc2c(F)cc(F)cc2O1 (centres unmarked) (as salt: hydrochloric acid salt) [Example 8, N-[(5,7-DIFLUORO-2,3-DIHYDRO-1,4-BENZODIOXIN-2-YL)METHYL]PROPAN-1-AMINE]				
191	CCCNCC1COc2ccc(Cl)cc2O1 (centres unmarked) (as salt: hydrochloric acid salt) [Example 4, N-[(7-CHLORO-2,3-DIHYDRO-1,4-BENZODIOXIN-2-YL)METHYL]PROPAN-1-AMINE]				
166	CCCNC[C@H]1COc2ccc(C(F)(F)F)cc2O1 (as salt: hydrochloric acid salt) [Example 58, N-{[(2S)-7-(TRIFLUOROMETHYL)-2,3-DIHYDRO-1,4-BENZODIOXIN-2-YL]METHYL}PROPAN-1-AMINE]				
194	CCCNC[C@H]1COc2ccc(Br)cc2O1 (as salt: hydrochloric acid salt) [Example 1, N-{[(2S)-7-BROMO-2,3-DIHYDRO-1,4-BENZODIOXIN-2-YL]METHYL}PROPAN-1-AMINE]				

Continued, compound first:

SMILES	melting point [°C]	Locomotor activity (counts/60 min ± SEM) (drug-naive rats; 3.7 μmol/kg) [counts/60 min]	Locomotor activity (counts/60 min ± SEM) (drug-naive rats; 11 μmol/kg) [counts/60 min]	Locomotor activity (counts/60 min ± SEM) (drug-naive rats; 33 μmol/kg) [counts/60 min]	ED50 [1] [µmol/kg]
Fc1ccc2c(c1)O[C@@H](CN1CCCC1)CO2 [Example 9, 1-{[(2S)-7-FLUORO-2,3-DIHYDRO-1,4-BENZODIOXIN-2-YL]METHYL}PYRROLIDINE]		5419 ± 1414	2769 ± 647	1944 ± 482	
CCCNCC1COc2c(F)cc(F)cc2O1 (centres unmarked) [Example 8, N-[(5,7-DIFLUORO-2,3-DIHYDRO-1,4-BENZODIOXIN-2-YL)METHYL]PROPAN-1-AMINE]		9266 ± 2706	8320 ± 2405	5457 ± 536	14
CCCNCC1COc2ccc(F)c(F)c2O1 (centres unmarked) [Example 7, N-[(7,8-DIFLUORO-2,3-DIHYDRO-1,4-BENZODIOXIN-2-YL)METHYL]PROPAN-1-AMINE]		7932 ± 2067	6884 ± 400	4408 ± 212	3.1
CCCNCC1COc2ccc(OS(=O)(=O)C(F)(F)F)cc2O1 (centres unmarked) [Example 6, 3-[(PROPYLAMINO)METHYL]-2,3-DIHYDRO-1,4-BENZODIOXIN-6-YL TRIFLUOROMETHANESULFONATE]		9495 ± 2036	10705 ± 1903	8064 ± 707	12
CCCNC[C@H]1COc2ccc(C(F)(F)F)cc2O1 [Example 58, N-{[(2S)-7-(TRIFLUOROMETHYL)-2,3-DIHYDRO-1,4-BENZODIOXIN-2-YL]METHYL}PROPAN-1-AMINE]					< 3.7
Fc1ccc2c(c1)O[C@@H](CN1CCCC1)CO2 (as salt: hydrochloric acid salt) [Example 9, 1-{[(2S)-7-FLUORO-2,3-DIHYDRO-1,4-BENZODIOXIN-2-YL]METHYL}PYRROLIDINE]	215				
CCCNC[C@H]1COc2ccc(Br)cc2O1 [Example 1, N-{[(2S)-7-BROMO-2,3-DIHYDRO-1,4-BENZODIOXIN-2-YL]METHYL}PROPAN-1-AMINE]		6714 ± 601	5111 ± 620	1326 ± 131	3.4
